Data reported in US10973932B2, “Preclinical model of neonatal necrotizing enterocolitis” (University of South Florida, priority 2017, dated 2021).

What was measured:
anemic-transfused mice = test: RBC transfusion-associated NEC-like injury in anemic-transfused mouse pups; format: in vivo
Protocol: Experimental design: Animal studies were approved by the Institutional Animal Care and Use Committee. C57BL/6 mice pups were studied in 4 groups: (a) naïve control; (b) transfusion control; (c) anemic control; and (d) anemic-transfused mice. Naïve controls were maintained without intervention. Transfusion controls received an intravenous RBC transfusion (20 mL/kg into the retro-orbital venous plexus, injected in 2 aliquots on each side) on postnatal day 11 (P11). RBCs for transfusion were collected in a sterile fashion from adult FVB/NJ donors after sacrifice into citrate-phosphate-dextrose-adenine-1 (CPDA-1; Sigma, St. Louis, Mo.; 6 parts blood: 1 part CPDA-1). […] Hematocrits and RBC indices were measured at each phlebotomy and then everyday on P11-13; 5 μL blood was diluted 1:20 in Cellpak reagent (Sysmex, Kobe, Japan) and analyzed in the Sysmex XT-2000iV automated veterinary hematology analyzer. […] To measure gut barrier function, FITC-dextran was administered by gavage (10 kDa, 400 mg/kg) 4 hrs before sacrifice and measured the FITC fluorescence signal in plasma samples obtained just prior to sacrifice. To measure regional blood flow, […] fluorescence-labeled microspheres were administered intravenously (15 μm, ThermoFisher, Waltham, Mass.) 1 hr before sacrifice and the fluorescence signal was measured in tissue lysates. […]

[1] = system: monocytes and macrophages; test: Depletion of intestinal monocytes/macrophages (flow cytometry); format: in vivo, mouse; conditions: CSF1R-DTR/mCherry×Lyz2-cre pups; 5 ng/g weight; FIG. 7E
Protocol: Flow cytometry: Macrophages were defined by flow cytometry (BD LSRII, Franklin Lakes, N.J.). Intestinal tissue was washed with Hanks' balanced-salt solution (HBSS) containing 1 mM DTT (Sigma) to remove mucus, and then treated first with HBSS containing 1 mM EDTA (Sigma)×20 min at 37° C., and then with HBSS containing 1 mM collagenase type IV (Sigma)×2 hrs at 37° C. Cell suspension was stained using established protocols with the L-D viability dye (ThermoFisher), lineage cocktail (BioLegend, San Diego, Calif.), and antibodies against CD11b, Ly6C, F4/80, Ly6G, and Ly6B (BioLegend).
Murine intestinal macrophages: Murine intestinal macrophages were isolated by immunomagnetic separation, where these cells were first stained with phycoerythrin (PE)-conjugated anti-CD11b, anti-F4/80, and anti-Ly6C antibodies and then separated using anti-PE-conjugated ferromagnetic beads (Miltenyi Biotec, San Diego, Calif.). In some experiments, monocytes and macrophages were depleted by administering clodronate liposomes (Clodrosome, Brentwood, Tenn.). A 50 mg/kg intraperitoneal dose was used and an identical dose by enema on postnatal day 8, which depleted >80% monocytes and macrophages in 72 hrs (pre-determined optimum).
These findings were confirmed using a second, more specific approach for macrophage depletion. […]

NF-κB = NF-κB reporter RAW264.7 macrophages stimulated with 7-day-stored RBCs; format: cell-based, murine; conditions: haptoglobin 10 μg/mL added with 7-day RBCs; FIG. 5H

**Q.** For diphtheria toxin, which “transfusion-associated NEC-like injury (onset, severity of bowel injury)” value (anemic-transfused mice; CSF1R-DTR/mCherry×Lyz2-cre anemic-transfused pups, 5 ng/g weight, FIGS. 7E-7G) is on record?
**A.** Its value is “protective”.

**Q.** What about the “inflammatory F4/80mid CD115+Ly6Chi macrophages (not resident macrophages)” value [1] of the same molecule?
**A.** The value was “selectively depleted”.

B1: recombinant haptoglobin: recombinant haptoglobin, a natural chelator of free hemoglobin (protein, UniProt P00738 19-406, looked up)
Haptoglobin: VDSGNDVTDIADDGCPKPPEIAHGYVEHSVRYQCKNYYKLRTEGDGVYTLNDKKQWINKAVGDKLPECEADDGCPKPPEIAHGYVEHSVRYQCKNYYKLRTEGDGVYTLNNEKQWINKAVGDKLPECEAVCGKPKNPANPVQRILGGHLDAKGSFPWQAKMVSHHNLTTGATLINEQWLLTTAKNLFLNHSENATAKDIAPTLTLYVGKKQLVEIEKVVLHPNYSQVDIGLIKLKQKVSVNERVMPICLPSKDYAEVGRVGYVSGWGRNANFKFTDHLKYVMLPVADQDQCIRHYEGSTVPEKKTPKSPVGVQPILNEHTFCAGMSKYQEDTCYGDAGSAFAVHDLEEDTWYATGILSFDKSCAVAEYGVYVKVTSIQDWVQKTIAEN
**Q.** B1 was tested. Which “transfusion-associated NEC-like injury (onset, severity of bowel injury)” value (anemic-transfused mice; intravenous 10 μg/g body weight 1 hr before transfusion, FIGS. 5I-5J) did it give?
**A.** Its value is “protective”.

**Q.** And the “inflammatory effect of 7-day-stored RBC units on macrophages (relative NF-κB activity)” value (NF-κB)?
**A.** The value was “reversed”.
